Experimental data from ChEMBL document CHEMBL4308841, “Synthesis, in vitro antiproliferative activity, and kinase inhibitory effects of pyrazole-containing diarylureas and diarylamides” (Eur J Med Chem, 2018).

Key:
[1] = test system: A549; experiment: Growth inhibition of human A549/ATCC cells assessed as cell growth at 0.1 uM incubated for 48 hrs by sulforhodamine B assay relative to control; format: functional; conditions: A549, 48 h, read-out: Activity
[2] = test system: MDA-MB-231; experiment: Growth inhibition of human MDA-MB-231 cells assessed as cell growth at 0.1 uM incubated for 48 hrs by sulforhodamine B assay relative to control; format: functional; conditions: MDA-MB-231, 48 h, read-out: Activity
[3] = test system: Malme-3M; experiment: Growth inhibition of human MALME-3M cells assessed as cell growth at 100 uM incubated for 48 hrs by sulforhodamine B assay relative to control; format: functional; conditions: read-out: Activity
[4] = test system: HCT-15; experiment: Growth inhibition of human HCT15 cells assessed as cell growth at 1 uM incubated for 48 hrs by sulforhodamine B assay relative to control; format: functional; conditions: HCT-15, 48 h, read-out: Activity
[5] = test system: NCI-H23; experiment: Growth inhibition of human NCI-H23 cells assessed as cell growth at 0.01 uM incubated for 48 hrs by sulforhodamine B assay relative to control; format: functional; conditions: NCI-H23, 48 h, read-out: Activity
[6] = test system: KM12; experiment: Growth inhibition of human KM12 cells incubated for 48 hrs by sulforhodamine B assay; format: functional, cell-based; conditions: KM12, 48 h
[7] = test system: SK-OV-3; experiment: Growth inhibition of human SKOV3 cells incubated for 48 hrs by sulforhodamine B assay; format: functional, cell-based; conditions: SK-OV-3, 48 h
[8] = test system: MOLT-4; experiment: Growth inhibition of human MOLT4 cells assessed as cell growth at 0.01 uM incubated for 48 hrs by sulforhodamine B assay relative to control; format: functional; conditions: MOLT-4, 48 h, read-out: Activity
[9] = test system: HOP-62; experiment: Growth inhibition of human HOP62 cells assessed as cell growth at 0.1 uM incubated for 48 hrs by sulforhodamine B assay relative to control; format: functional; conditions: HOP-62, 48 h, read-out: Activity
[10] = test system: NCI-H460; experiment: Growth inhibition of human NCI-H460 cells assessed as cell growth at 0.01 uM incubated for 48 hrs by sulforhodamine B assay relative to control; format: functional; conditions: NCI-H460, 48 h, read-out: Activity
[11] = test system: CCRF-CEM; experiment: Growth inhibition of human CCRF-CEM cells incubated for 48 hrs by sulforhodamine B assay; format: functional, cell-based
[12] = test system: NCI-H522; experiment: Growth inhibition of human NCI-H522 cells assessed as cell growth at 0.1 uM incubated for 48 hrs by sulforhodamine B assay relative to control; format: functional; conditions: NCI-H522, 48 h, read-out: Activity
[13] = test system: ACHN; experiment: Growth inhibition of human ACHN cells incubated for 48 hrs by sulforhodamine B assay; format: functional, cell-based
[14] = test system: SNB-19; experiment: Growth inhibition of human SNB19 cells incubated for 48 hrs by sulforhodamine B assay; format: functional, cell-based; conditions: SNB-19, 48 h
[15] = test system: ACHN; experiment: Growth inhibition of human ACHN cells assessed as cell growth at 0.1 uM incubated for 48 hrs by sulforhodamine B assay relative to control; format: functional; conditions: read-out: Activity
[16] = test system: T47D; experiment: Growth inhibition of human T47D cells assessed as cell growth at 0.01 uM incubated for 48 hrs by sulforhodamine B assay relative to control; format: functional; conditions: read-out: Activity
[17] = test system: HT-29; experiment: Growth inhibition of human HT-29 cells incubated for 48 hrs by sulforhodamine B assay; format: functional, cell-based; conditions: HT-29, 48 h
[18] = test system: OVCAR-8; experiment: Growth inhibition of human OVCAR8 cells assessed as cell growth at 0.01 uM incubated for 48 hrs by sulforhodamine B assay relative to control; format: functional; conditions: OVCAR-8, 48 h, read-out: Activity
[19] = test system: DU-145; experiment: Growth inhibition of human DU145 cells assessed as cell growth at 1 uM incubated for 48 hrs by sulforhodamine B assay relative to control; format: functional; conditions: DU-145, 48 h, read-out: Activity
[20] = test system: SF-295; experiment: Growth inhibition of human SF295 cells assessed as cell growth at 1 uM incubated for 48 hrs by sulforhodamine B assay relative to control; format: functional; conditions: SF-295, 48 h, read-out: Activity
[21] = test system: ACHN; experiment: Growth inhibition of human ACHN cells assessed as cell growth at 0.01 uM incubated for 48 hrs by sulforhodamine B assay relative to control; format: functional; conditions: read-out: Activity
[22] = test system: SK-MEL-5; experiment: Growth inhibition of human SK-MEL-5 cells incubated for 48 hrs by sulforhodamine B assay; format: functional, cell-based; conditions: SK-MEL-5, 48 h
[23] = test system: K562; experiment: Growth inhibition of human K562 cells assessed as cell growth at 100 uM incubated for 48 hrs by sulforhodamine B assay relative to control; format: functional; conditions: K562, 48 h, read-out: Activity
[24] = test system: HT-29; experiment: Growth inhibition of human HT-29 cells assessed as cell growth at 0.1 uM incubated for 48 hrs by sulforhodamine B assay relative to control; format: functional; conditions: HT-29, 48 h, read-out: Activity
[25] = test system: UACC-257; experiment: Growth inhibition of human UACC257 cells assessed as cell growth at 100 uM incubated for 48 hrs by sulforhodamine B assay relative to control; format: functional; conditions: UACC-257, 48 h, read-out: Activity
[26] = test system: HL-60(TB); experiment: Growth inhibition of human HL-60(TB) cells assessed as cell growth at 1 uM incubated for 48 hrs by sulforhodamine B assay relative to control; format: functional; conditions: HL-60, 48 h, read-out: Activity
[27] = test system: COLO 205; experiment: Growth inhibition of human COLO205 cells incubated for 48 hrs by sulforhodamine B assay; format: functional, cell-based; conditions: COLO 205, 48 h
[28] = test system: SW-620; experiment: Growth inhibition of human SW620 cells assessed as cell growth at 100 uM incubated for 48 hrs by sulforhodamine B assay relative to control; format: functional; conditions: SW-620, 48 h, read-out: Activity
[29] = read-out: LC50 (the source's name)
[30] = read-out: pLC50 (the source's name) (converted)

## COc1cc(Cl)cc(-c2nn(-c3cccc(NC(=O)c4cccc(C(F)(F)F)c4)c3)cc2-c2ccncc2)c1
[1]
  growth at 0.1 µM: 93%
[2]
  growth at 0.1 µM: 90%
[3]
  growth at 100 µM: 55%
[4]
  growth at 1 µM: 71%
[5]
  growth at 0.01 µM: 93%
[6]; read-out: GI50
  GI50: 4.53 µM
[6]; [29]
  CC50: > 100 µM
[6]; read-out: TGI
  TGI: > 100 µM
[6]; read-out: pGI50 (converted)
  GI50: 4.57 µM
[6]; [30]
  CC50: > 100 µM
[6]; read-out: pTGI (converted)
  TGI: > 100 µM
[7]; read-out: GI50
  GI50: > 100 µM
[7]; [29]
  CC50: > 100 µM
[7]; read-out: TGI
  TGI: > 100 µM
[7]; read-out: pGI50 (converted)
  GI50: > 100 µM
[7]; [30]
  CC50: > 100 µM
[7]; read-out: pTGI (converted)
  TGI: > 100 µM
[8]
  growth at 0.01 µM: 91%
[9]
  growth at 0.1 µM: 101%
[10]
  growth at 0.01 µM: 101%
[11]; read-out: GI50
  GI50: 4.38 µM
[11]; [29]
  CC50: > 100 µM
[11]; read-out: TGI
  TGI: > 100 µM
[11]; read-out: pGI50 (converted)
  GI50: 4.37 µM
[11]; [30]
  CC50: > 100 µM
[11]; read-out: pTGI (converted)
  TGI: > 100 µM
[12]
  growth at 0.1 µM: 83%
[13]; read-out: GI50
  GI50: 7.21 µM
[13]; [29]
  CC50: > 100 µM
[13]; read-out: TGI
  TGI: > 100 µM
[13]; read-out: pGI50 (converted)
  GI50: 7.24 µM
[13]; [30]
  CC50: > 100 µM
[13]; read-out: pTGI (converted)
  TGI: > 100 µM
[14]; read-out: GI50
  GI50: > 100 µM
[14]; [29]
  CC50: > 100 µM
[14]; read-out: TGI
  TGI: > 100 µM
[14]; read-out: pGI50 (converted)
  GI50: > 100 µM
[14]; [30]
  CC50: > 100 µM
[14]; read-out: pTGI (converted)
  TGI: > 100 µM
[15]
  growth at 0.1 µM: 98%
[16]
  growth at 0.01 µM: 99%
[17]; read-out: GI50
  GI50: 3.37 µM
[17]; [29]
  CC50: > 100 µM
[17]; read-out: TGI
  TGI: > 100 µM
[17]; read-out: pGI50 (converted)
  GI50: 3.39 µM
[17]; [30]
  CC50: > 100 µM
[17]; read-out: pTGI (converted)
  TGI: > 100 µM
[18]
  growth at 0.01 µM: 103%
[19]
  growth at 1 µM: 100%
[20]
  growth at 1 µM: 57%
[21]
  growth at 0.01 µM: 98%
[22]; read-out: GI50
  GI50: 5.43 µM
[22]; [29]
  CC50: > 100 µM
[22]; read-out: TGI
  TGI: > 100 µM
[22]; read-out: pGI50 (converted)
  GI50: 5.37 µM
[22]; [30]
  CC50: > 100 µM
[22]; read-out: pTGI (converted)
  TGI: > 100 µM
[23]
  growth at 100 µM: 32%
[24]
  growth at 0.1 µM: 93%
[25]
  growth at 100 µM: 52%
[26]
  growth at 1 µM: 105%
[27]; read-out: GI50
  GI50: 3.37 µM
[27]; [29]
  CC50: > 100 µM
[27]; read-out: TGI
  TGI: > 100 µM
[27]; read-out: pGI50 (converted)
  GI50: 33.9 µM
[27]; [30]
  CC50: > 100 µM
[27]; read-out: pTGI (converted)
  TGI: > 100 µM
[28]
  growth at 100 µM: 57%
